# According to article PMC9412875, “^64Cu-DOTHA2-PSMA, a Novel PSMA PET Radiotracer for Prostate Cancer with a Long Imaging Time Window” (Pharmaceuticals, 2022):
# “Also recorded” adds a separate entry of the source.
# What was measured:
# [1] = In vivo stability (blood, urine, liver) after injection; parameters: species or system balb/c mice
# Description: For metabolite analysis, three balb/c mice were injected with a bolus of 32 MBq of ^64Cu-DOTHA2-PSMA in 0.3 mL saline by tail vein (real IA: 26.4–39.0 MBq). Blood was collected at 1 h p.i. (0.01–0.1 mL) in heparin-coated tubes and then centrifuged at 10,000 rpm for 10 min. Subsequently, the pellet and supernatant were separated, and the relative activity was determined. Radio-TLC was performed to assess the stability of the radiolabeled compound in the blood and in plasma. Two balb/c mice were injected with 45 MBq (real IA: 44.7–45.5 MBq). Urine was collected at 1 h p.i. and analyzed by UPLC. Two balb/c mice were injected with 59 MBq and then euthanized and dissected at 2 h p.i. to harvest the liver (real IA: 58.9–59.3 MBq). The livers were promptly washed and put on ice. They were homogenized with an ice-cold piston with 1 mL of water, extracted, centrifuged (14,000 rpm; 3 min), and mixed with 1 mL of acetonitrile before 4 further cycles of centrifugation and the collection of supernatants. All the pellets were mixed with 1 mL of 10% TFA and centrifuged, and the final supernatant was analyzed by Radio-TLC. The activity was measured in all the supernatants.
# [2] = test system: LNCaP cells; test: Cellular efflux assay; type: cell-based, human
# Description: Here, 12-well polylysine-coated Cellbind plates were seeded with 150 × 10^3 LNCaP cells with 1.75 mL of cell media. At 70–100% confluence (3 days of growth), the cell medium was changed and 37 kBq of ^64Cu-DOTHA2-PSMA in 1 mL of cell medium was added to each well of group 1 and 160 kBq to each of group 2.
# For efflux assays, after adding ^64Cu-DOTHA2-PSMA, cells were incubated for 60 min for the time points 15 min to 4 h (group 1) and incubated for 4 h for the time points 4 h to 48 h (group 2). After incubation, the medium was removed, cells were washed with 1 mL of cold PBS, 1 mL of cell media was added and, similarly to uptake and internalization, cells were again incubated in nonradioactive media for 0, 15, 30, 45, 60 min, 2 h, 4 h (group 1) and 4 h, 8 h, 24 h, 32 h or 48 h (group 2) (3 wells per time point). After respective incubation times per well, the medium was removed, and cells were washed with 1 mL of cold PBS, then removed from the well with 1 mL of trypsin to measure the residual radioactivity by gamma counter. The results of residual activity were expressed as percentage of the 1 h (Group 1) or 4 h (Group 2) uptake activity (0 min of efflux time-point) as a function of time for 10^6 cells.
# All the assays were performed at least 3 times, each with different ^64Cu-DOTHA2-PSMA production and cell passage. Cells were counted in 3 wells for each protocol (uptake, internalization, and efflux) on day 1 and day 3 of each experiment and an average for cells numbers at day 2.
# [3] = test system: LNCaP tumor; test: PET imaging of LNCaP tumor-bearing mice; type: in vivo, NRG mice
# Description: All the experiments were conducted according to a protocol approved by the Animal Ethics Committee of the Université de Sherbrooke and were in accordance with the guidelines of the Canadian Council on Animal Care. All animal manipulations that could cause pain, stress, or that required immobilization were performed under isoflurane anesthesia (2% in 2 L/min oxygen) with a heating pad or bed. When protocols required animal death (e.g., biodistribution) or ethical limits (e.g., tumor size) were reached, euthanasia was performed by CO2 inhalation under isoflurane anesthesia. […] For PET imaging, NRG mice were used (The Jack Laboratory, 7–10 weeks old, and 19–26 g at time of experiment). A total of 200 µL of a 1:1 Matrigel/PBS mixture containing […] LNCaP cells was injected subcutaneously on each shoulder of NRG mice. Experiments were initiated 2 to 4 weeks after inoculation when tumors reached a diameter between 5 and 10 mm.
# Dynamic (0–1 h p.i.) and static (4 h, 20 min long and 24 h p.i., 1h long) PET assays were performed in combination with 5 min CT in NRG mice injected with 8 MBq of ^64Cu-DOTHA2-PSMA in 0.3 mL of saline through the tail vein (LabPET 8/-Triumph; Gamma Medica, Northridge, CA, USA). Blocking was achieved by the co-injection of 20 nmol of ^natCu-DOTHA2-PSMA (n = 3 per group). We selected this blocking agent because its pharmacokinetics are similar to ^64Cu-DOTHA2-PSMA. PET images were reconstructed using the three-dimensional maximum likelihood […] method (MLEM-3D) algorithm with 20 iterations and a 60 mm field-of-view (Gamma Medica). The analyses were conducted using AMIDE software 1.0.4. Quantitative image data were reported as %IA per volume (centimeter cube, cc).
# [4] = test system: LNCaP cells; test: Cellular efflux assay; type: cell-based, human; conditions: 1h incubation, efflux time 3 h
# [5] = in mice, 1 h p.i., after 10% TFA
smiles,measurement,setting,value
CN([O-])C(=O)CN1CCN(CC(=O)NCC2CCC(C(=O)NC(Cc3ccc4ccccc4c3)C(=O)NCCCCC(NC(=O)NC(CCC(=O)O)C(=O)O)C(=O)O)CC2)CCN(CC(=O)N(C)[O-])CCN(CC(=O)N(C)O)CC1.[64Cu+2] (stereo not drawn) [^64Cu-DOTHA2-PSMA],64Cu metabolite observed in the liver,"[1]; balb/c mice, 2 h p.i., radio-TLC",25%
same,tracer form found in urine,"[1]; balb/c mice, urine 1 h p.i., UPLC",intact ^64Cu tracer was found in urine; also recorded: no metabolite was observed in urine
same,64Cu and 64Cu-DOTHA2-PSMA Bound to Plasma Proteins,"[1]; in mice, 1 h p.i.",48%
same,64Cu dissociation in combined supernatant and plasma proteins,"[1]; in mice, 1 h p.i.",4.58%
same,64Cu released from Proteins,[1]; [5],1.98%
same,64Cu-DOTHA2-PSMA Released from Proteins,[1]; [5],31%
same,64Cu in the Supernatant,"[1]; in mice, blood 1 h p.i., % of total plasma signal",2.60%
same,"free 64Cu in blood (peak in plasma supernatant, radio-TLC)","[1]; mice, 1 h p.i.",5%
same,free 64Cu in the liver,"[1]; mice, 2 h p.i., radio-TLC",no free ^64Cu was observed; also recorded: free ^64Cu was not seen in liver
same,Retained activity normalized to time 0,"[2]; 1h incubation, efflux time 0.25 h",100.93%
same,Retained activity normalized to time 0,"[2]; 1h incubation, efflux time 0.50 h",105.51%
same,Retained activity normalized to time 0,"[2]; 1h incubation, efflux time 0.75 h",94.38%
same,Retained activity normalized to time 0,"[2]; 1h incubation, efflux time 1 h",77.52%
same,Retained activity normalized to time 0,"[2]; 1h incubation, efflux time 2 h",80.95%
same,Retained activity normalized to time 0,"[2]; 1h incubation, efflux time 4 h",64.04%
same,Retained activity normalized to time 0,"[2]; 4h incubation, efflux time 4 h",66.23%
same,Retained activity normalized to time 0,"[2]; 4h incubation, efflux time 8 h",51.88%
same,Retained activity normalized to time 0,"[2]; 4h incubation, efflux time 24 h",35.10%
same,Retained activity normalized to time 0,"[2]; 4h incubation, efflux time 32 h",34.27%
same,Retained activity normalized to time 0,"[2]; 4h incubation, efflux time 48 h",48.61%
same,tumor uptake (PET),"[3]; 1 h p.i., co-injection of blocking agent (20 nmol natCu-DOTHA2-PSMA)",4.78 ± 0.96 % IA/cc
same,"liver uptake (PET, peak)",[3]; 4 h p.i.,26.8 ± 5.3 % IA/cc
same,tumor uptake (PET),"[3]; 4 h p.i., co-injection of blocking agent (20 nmol natCu-DOTHA2-PSMA)",7.46 ± 1.07 % IA/cc
same,tumor uptake (PET),"[3]; 24 h p.i., co-injection of blocking agent (20 nmol natCu-DOTHA2-PSMA)",8.62 ± 0.74 % IA/cc
same,tumor uptake (PET),"[3]; LNCaP tumor, NRG mice, 1 h p.i., non-blocked",14.0 ± 5.0 % IA/cc
same,tumor uptake (PET),"[3]; LNCaP tumor, NRG mice, 4 h p.i., non-blocked",23.8 ± 11.5 % IA/cc
same,tumor uptake (PET),"[3]; LNCaP tumor, NRG mice, 24 h p.i., non-blocked",18.5 ± 6.6 % IA/cc
same,time of highest tumoral uptake,"[3]; PET, LNCaP tumor",4 h p.i.
same,"time of peak kidney uptake, calyxes",[3]; dynamic PET,10 min p.i.
same,"time of peak kidney uptake, cortex",[3]; dynamic PET,5 min p.i.
same,tumor-to-kidney ratios,[3]; from 1 h p.i.,greater than 1
same,time of peak of urinary clearance (kidney calyxes and cortex signals),[3]; time-activity curves,≤ 10 min
same,Retained activity normalized to time 0,[4],76.53%
